Key:
[1] = biological target: T1, human full length HSD11 β 1 (Homo sapiens, UniProt P28845); experiment: In Vitro HSD11β1 Inhibition Assay; type: cell-based; settings: CHO cells transiently expressing human HSD11β1; 200 nM cortisone+500 uM NADPH overnight; cortisone to cortisol by LC/MS-MS; read-out: 11βHSD1 (IC50)
T1 construct: transient expression of human full length HSD11 β 1 expression vector; host or cells: CHO cells (transient transfection)
In short: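 CHO cells transiently transfected with human full-length HSD11β1 were re-seeded after 24 h and, 24 h later, incubated overnight with 200 nM cortisone plus 500 uM NADPH and inhibitor. Cortisone-to-cortisol conversion was measured by LC/MS-MS. IC50 from an 8-point log concentration–inhibition curve.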

[2] = phase IIa trial, type 2 diabetes, 28-days; cited from earlier work

T1 sequence (P28845 whole entry): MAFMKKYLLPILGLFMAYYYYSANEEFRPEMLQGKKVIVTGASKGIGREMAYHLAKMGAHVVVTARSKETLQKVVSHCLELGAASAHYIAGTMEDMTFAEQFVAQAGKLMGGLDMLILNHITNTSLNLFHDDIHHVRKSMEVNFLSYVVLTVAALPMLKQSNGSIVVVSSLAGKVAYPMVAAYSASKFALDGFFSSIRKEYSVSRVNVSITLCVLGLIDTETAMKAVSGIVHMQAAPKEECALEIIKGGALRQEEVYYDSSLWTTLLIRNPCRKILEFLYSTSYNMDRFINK

| IC50 [1] [nM] | SMILES | safety and tolerability [2] |
| --- | --- | --- |
| > 250 | CC(C)C(CC(=O)N1CCC(C(=O)O)C2CCCCC21)c1c[nH]c2cccc(F)c12 (stereo not drawn) [Example 179, 1-[3-(4-fluoro-1H-Indol-3-yl)-4-methylpentanoyl]decahydroquinoline-4-carboxylic acid] |  |
| > 250 | Cc1ccnc2[nH]cc(C(CC(=O)N3CCC(C(=O)O)C4CCCCC43)C(C)C)c12 (stereo not drawn) [Example 180, 1-[4-methyl-3-(4-methyl-1H-pyrrolo[2,3-b]pyridin-3-yl)pentanoyl]decahydroquinoline-4-carboxylic acid] |  |
| > 250 | Cc1cccc2c1nnn2C(CC(=O)N1CCC(C(=O)O)C2CCCCC21)C(C)C (stereo not drawn) [Example 183, 1-[4-methyl-3-(4-methyl-1H-benzotriazol-1-yl)pentanoyl]decahydroquinoline-4-carboxylic acid] |  |
| > 250 | O=C(O)C1CCN(C(=O)CC(c2cccs2)c2c[nH]c3cccc(Cl)c23)C2CCCCC12 (stereo not drawn) [Example 184, 1-[3-(4-chloro-1H-indol-3-yl)-3-(thiophen-2-yl)propanoyl]decahydroquinoline-4-carboxylic acid] |  |
| 150 to 200 | CC(C)C(CC(=O)N1CCC(C(=O)O)C2CCCCC21)c1c[nH]c2cc(Cl)ccc12 (stereo not drawn) [Example 185, 1-[3-(6-chloro-1H-indol-3-yl)-4-methylpentanoyl]decahydroquinoline-4-carboxylic acid] |  |
| < 100 | O=C(O)C1CCC2C(CCCN2C(=O)CC(c2ccccc2)c2c[nH]c3cccc(F)c23)C1 (stereo not drawn) [Example 186, 1-[3-(4-fluoro-1H-indol-3-yl)-3-phenylpropanoyl]decahydroquinoline-6-carboxylic acid] |  |
| > 250 | CCC(CC(=O)N1CCC(C(=O)O)C2CCCCC21)c1c[nH]c2cccc(Cl)c12 (stereo not drawn) [Example 187, 1-[3-(4-chloro-1H-indol-3-yl)pentanoyl]decahydroquinoline-4-carboxylic acid] |  |
| < 100 | O=C(O)C1CCCC2C1CCCN2C(=O)CC(c1ccccc1)c1c[nH]c2cccc(F)c12 (stereo not drawn) [Example 188, 1-[3-(4-fluoro-1H-indol-3-yl)-3-phenylpropanoyl]decahydroquinoline-5-carboxylic acid] |  |
|  | CNC(=O)c1ccc(-c2ccc(C3(C(=O)N4CC[C@@]5(C4)OC(=O)c4ccccc45)CC3)cc2)cn1 [INCB13739] | safe and well tolerated without any serious side effects and hypoglycemia |

From US9453014B2, “Cyclic amide derivatives as inhibitors of 11-β-hydroxysteroid dehydrogenase and uses thereof” (CONNEXIOS LIFE SCIENCES PVT. LTD., priority 2011, dated 2016)
